Like-named read-outs stand apart in the source and are kept apart here. Numbered stars: 1 amine (or outer) side, 2 acyl side, 3 side chain; on linkers, the order of the positions; unused ones are H or OH. Bridge positions count the residues as written; N and C are the ends. Square brackets hold non-standard residues; d marks the D form. Peptide text beside a SMILES is read from it. Trp(βS-Me,7-OMe) = COc1cccc2c([C@H](C)[C@H](N)C(=O)O)c[nH]c12; Phe(4-SO2NH2) = N[C@@H](Cc1ccc(S(N)(=O)=O)cc1)C(=O)O; Phe(2-F,4-COOH) = N[C@@H](Cc1ccc(C(=O)O)cc1F)C(=O)O; Trp(7-CN) = N#Cc1cccc2c(C[C@H](N)C(=O)O)c[nH]c12; Trp(7-Cl) = N[C@@H](Cc1c[nH]c2c(Cl)cccc12)C(=O)O; Ala(pyrimidin-5-yl) = N[C@@H](Cc1cncnc1)C(=O)O; Phe(3-CONH2) = NC(=O)c1cccc(C[C@H](N)C(=O)O)c1; Phe(4-CONH2) = NC(=O)c1ccc(C[C@H](N)C(=O)O)cc1; Phe(4-COOH) = N[C@@H](Cc1ccc(C(=O)O)cc1)C(=O)O; Trp(7-aza) = N[C@@H](Cc1c[nH]c2ncccc12)C(=O)O; X9 = CN(C)[C@@H]1C[C@H](C(=O)[*:2])N([*:1])C1; Pip(5R-OH) = O=C(O)[C@@H]1CC[C@@H](O)CN1; X1 = O=C([C@@H]1CC[C@H](N[*:1])C1)[*:2]; Nle(5,5-F2) = CC(F)(F)CC[C@H](N)C(=O)O; NMeT = CN[C@H](C(=O)O)[C@@H](C)O; Pip(4-aza) = O=C(O)[C@@H]1CNCCN1; 4Pal = N[C@@H](Cc1ccncc1)C(=O)O; NMeE = CN[C@@H](CCC(=O)O)C(=O)O; dHyp = O=C(O)[C@H]1C[C@H](O)CN1; Cit = NC(=O)NCCC[C@H](N)C(=O)O; Ahp(2) = CCCCC[C@H](N)C(=O)O; NEtAla = CCN[C@@H](C)C(=O)O; Pip = O=C(O)[C@@H]1CCCCN1; αMeS = C[C@](N)(CO)C(=O)O; Nle = CCCC[C@H](N)C(=O)O; Sar = CNCC(=O)O
Tests used:
[1] = target: T1, human soluble TNFR1 (sTNFR1) (Homo sapiens, UniProt P19438); experiment: Human sTNFR1-peptide displacement assay (LanthaScreen Eu TR-FRET binding assay)
T1 construct: made in house; host or cells: Sf21 (baculovirus)
T1 sequence (P19438 with tags, fused parts or gaps): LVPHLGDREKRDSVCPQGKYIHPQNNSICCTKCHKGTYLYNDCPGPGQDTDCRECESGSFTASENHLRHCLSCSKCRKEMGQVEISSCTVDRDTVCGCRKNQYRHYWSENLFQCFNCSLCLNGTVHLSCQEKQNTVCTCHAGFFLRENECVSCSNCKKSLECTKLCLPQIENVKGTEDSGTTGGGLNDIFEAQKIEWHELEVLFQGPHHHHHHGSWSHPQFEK
Outline: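 Readout is the 665/615 nm TR-FRET ratio (Eu anti-His donor, streptavidin-Alexa647 acceptor), normalized to DMSO and saturating displacer, fit by Morrison-based five-parameter logistic for Kd^app. His-tagged sTNFR1 (1-211) prebound to 100 nM biotinylated peptide SEQ ID NO.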

human TNFR2 ECD protein = target: T2, human TNFR2 ECD protein (Homo sapiens, UniProt P20333); experiment: SPR off-target binding (selectivity) to human TNFR2 ECD
T2 construct: HRV 3C protease cleavage site (C); 6His (C, cleaved yes); made in house; host or cells: Sf21 insect cells (baculovirus), secreted
T2 sequence (P20333 23-257): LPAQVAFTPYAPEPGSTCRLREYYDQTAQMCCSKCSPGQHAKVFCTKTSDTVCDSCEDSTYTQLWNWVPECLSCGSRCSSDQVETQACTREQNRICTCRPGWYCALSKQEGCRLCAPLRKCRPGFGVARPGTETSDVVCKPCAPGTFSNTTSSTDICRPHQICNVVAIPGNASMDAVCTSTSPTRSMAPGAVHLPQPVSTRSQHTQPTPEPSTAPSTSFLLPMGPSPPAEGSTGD
Outline: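 Read-out: kon, koff and derived affinity from SPR response units. Human TNFR1 and TNFR2 ECD, Avi-tag biotinylated with BirA, captured on a streptavidin surface; peptides injected under laminar flow in HEPES-saline with EDTA, P20 and 2% DMSO.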

[2] = displacement of biotinylated peptide SEQ ID NO. 1 from sTNFR1, 20 point titration, 5-parameter fit based on Morrison equation (tight binding), read-out: TR-FRET Kd^app
[3] = biotinylated human TNFR2 ECD on streptavidin chip, read-out: SPR hTNFR2 KD

Compound | Kd [1, 2] [nM] | Kd (human TNFR2 ECD protein; [3]) [nM] | Kd [1] [nM] | Kd (human TNFR2 ECD protein) [nM]
CCCC[C@@H]1NC(=O)[C@@H]2CC[C@@H](C2)NC(=O)[C@H]([C@@H](C)c2c[nH]c3c(OC)cccc23)NC(=O)CN(C)C(=O)[C@H](Cc2ccc(C(=O)O)cc2F)NC(=O)[C@H](Cc2ccc(S(N)(=O)=O)cc2)NC(=O)[C@](C)(CO)NC(=O)[C@H](Cc2c[nH]c3c(C#N)cccc23)NC(=O)[C@H](Cc2ccc(C(=O)O)cc2F)NC(=O)[C@H](CC(N)=O)NC(=O)[C@H]2C[C@H](O)CN2C(=O)[C@H](Cc2c[nH]c3ncccc23)NC(=O)[C@@H]2CC[C@@H](O)CN2C(=O)[C@H](Cc2cncnc2)NC1=O [SEQ ID NO. 51] (cyclo(N[Phe(2-F,4-COOH)][Trp(7-CN)][αMeS][Phe(4-SO2NH2)][Phe(2-F,4-COOH)][Sar][Trp(βS-Me,7-OMe)][X1][Nle][Ala(pyrimidin-5-yl)][Pip(5R-OH)][Trp(7-aza)][dHyp])) | 0.05 | > 1000 | – | –
CCCCC[C@@H]1NC(=O)[C@@H]2CC[C@@H](C2)NC(=O)[C@H]([C@@H](C)c2c[nH]c3c(OC)cccc23)NC(=O)CN(C)C(=O)[C@H](Cc2cccc(C(N)=O)c2)NC(=O)[C@H](Cc2ccc(C(N)=O)cc2)NC(=O)[C@](C)(CO)NC(=O)[C@H](Cc2c[nH]c3c(C#N)cccc23)NC(=O)[C@H](Cc2ccc(C(=O)O)cc2)NC(=O)[C@H](CC(N)=O)NC(=O)[C@H]2C[C@@H](N(C)C)CN2C(=O)[C@H](Cc2c[nH]c3ccccc23)NC(=O)[C@@H]2CC[C@@H](O)CN2C(=O)[C@H](Cc2ccncc2)NC1=O [SEQ ID NO. 84] (cyclo([4Pal][Pip(5R-OH)]W[X9]N[Phe(4-COOH)][Trp(7-CN)][αMeS][Phe(4-CONH2)][Phe(3-CONH2)][Sar][Trp(βS-Me,7-OMe)][X1][Ahp(2)])) | – | – | 0.06 | > 1000
CCCC[C@@H]1NC(=O)[C@@H]2CC[C@@H](C2)NC(=O)[C@H]([C@@H](C)c2c[nH]c3c(OC)cccc23)NC(=O)CN(C)C(=O)[C@H](Cc2ccc(C(N)=O)cc2)NC(=O)[C@H](Cc2ccc(C(N)=O)cc2)NC(=O)[C@](C)(CO)NC(=O)[C@H](Cc2c[nH]c3c(C#N)cccc23)NC(=O)[C@H](Cc2ccc(C(=O)O)cc2)NC(=O)[C@H](CC(N)=O)NC(=O)[C@H]2C[C@H](O)CN2C(=O)[C@H](Cc2c[nH]c3ccccc23)NC(=O)[C@@H]2CC[C@@H](O)CN2C(=O)[C@H](Cc2ccncc2)NC1=O [SEQ ID NO. 45] (cyclo([4Pal][Pip(5R-OH)]W[dHyp]N[Phe(4-COOH)][Trp(7-CN)][αMeS][Phe(4-CONH2)][Phe(4-CONH2)][Sar][Trp(βS-Me,7-OMe)][X1][Nle])) | 0.05 | > 1000 | – | –
CCCC[C@@H]1NC(=O)CSC[C@@H](C(N)=O)NC(=O)[C@H]([C@@H](C)c2c[nH]c3c(OC)cccc23)NC(=O)CN(C)C(=O)[C@H](Cc2ccc(O)cc2)NC(=O)[C@H](Cc2ccc(C(=O)O)cc2)NC(=O)[C@](C)(CO)NC(=O)[C@H](Cc2c[nH]c3c(Cl)cccc23)NC(=O)[C@H](Cc2ccncc2)NC(=O)[C@H](CC(N)=O)NC(=O)[C@H](CCC(=O)O)N(C)C(=O)[C@H](Cc2c[nH]c3ncccc23)NC(=O)[C@H]([C@@H](C)O)N(C)C(=O)[C@H](Cc2ccncc2)NC1=O [SEQ ID NO. 29] ({CH2CO}-[Nle][4Pal][NMeT][Trp(7-aza)][NMeE]N[4Pal][Trp(7-Cl)][αMeS][Phe(4-COOH)]Y[Sar][Trp(βS-Me,7-OMe)]C-NH2; thioether N-14) | – | – | 0.65 | > 1000
COc1cccc2c([C@H](C)[C@@H]3NC(=O)CN(C)C(=O)[C@H](Cc4cccc(C(N)=O)c4)NC(=O)[C@H](Cc4ccc(C(=O)O)cc4)NC(=O)[C@](C)(CO)NC(=O)[C@H](Cc4c[nH]c5c(Cl)cccc45)NC(=O)[C@H](Cc4ccncc4)NC(=O)[C@H](CC(N)=O)NC(=O)[C@H]4C[C@H](O)CN4C(=O)[C@H](Cc4c[nH]c5ccccc45)NC(=O)[C@@H]4CC[C@@H](O)CN4C(=O)[C@H](Cc4ccncc4)NC(=O)[C@H](CCCNC(N)=O)NC(=O)[C@@H]4CC[C@@H](C4)NC3=O)c[nH]c12 [SEQ ID NO. 54] (cyclo([4Pal][Trp(7-Cl)][αMeS][Phe(4-COOH)][Phe(3-CONH2)][Sar][Trp(βS-Me,7-OMe)][X1][Cit][4Pal][Pip(5R-OH)]W[dHyp]N)) | – | – | 0.24 | > 1000
COc1cccc2c([C@H](C)[C@@H]3NC(=O)CN(C)C(=O)[C@H](Cc4ccc(O)cc4)NC(=O)[C@H](Cc4ccc(C(=O)O)cc4)NC(=O)[C@](C)(CO)NC(=O)[C@H](Cc4c[nH]c5c(Cl)cccc45)NC(=O)[C@H](Cc4ccncc4)NC(=O)[C@H](CC(N)=O)NC(=O)[C@H](CCC(=O)O)N(C)C(=O)[C@H](Cc4c[nH]c5ccccc45)NC(=O)[C@@H]4CNCCN4C(=O)[C@H](Cc4ccncc4)NC(=O)[C@H](CCC(C)(F)F)NC(=O)[C@@H]4CC[C@@H](C4)NC3=O)c[nH]c12 [SEQ ID NO. 275] (cyclo([4Pal][Trp(7-Cl)][αMeS][Phe(4-COOH)]Y[Sar][Trp(βS-Me,7-OMe)][X1][Nle(5,5-F2)][4Pal][Pip(4-aza)]W[NMeE]N)) | – | – | 0.36 | > 1000
CCCC[C@@H]1NC(=O)[C@@H]2CC[C@@H](C2)NC(=O)[C@H]([C@@H](C)c2c[nH]c3c(OC)cccc23)NC(=O)CN(C)C(=O)[C@H](Cc2cccc(C(N)=O)c2)NC(=O)[C@H](Cc2ccc(C(=O)O)cc2)NC(=O)[C@](C)(CO)NC(=O)[C@H](Cc2c[nH]c3c(Cl)cccc23)NC(=O)[C@H](Cc2ccncc2)NC(=O)[C@H](CC(N)=O)NC(=O)[C@H](CCC(=O)O)N(C)C(=O)[C@H](Cc2c[nH]c3ccccc23)NC(=O)[C@@H]2CCCCN2C(=O)[C@H](Cc2ccncc2)NC1=O [SEQ ID NO. 221] (cyclo([4Pal][Pip]W[NMeE]N[4Pal][Trp(7-Cl)][αMeS][Phe(4-COOH)][Phe(3-CONH2)][Sar][Trp(βS-Me,7-OMe)][X1][Nle])) | 0.31 | > 1000 | – | –
CCCC[C@@H]1NC(=O)[C@@H]2CC[C@@H](C2)NC(=O)[C@H]([C@@H](C)c2c[nH]c3c(OC)cccc23)NC(=O)CN(C)C(=O)[C@H](Cc2ccc(C(=O)O)cc2)NC(=O)[C@H](Cc2ccc(C(N)=O)cc2)NC(=O)[C@](C)(CO)NC(=O)[C@H](Cc2c[nH]c3c(Cl)cccc23)NC(=O)[C@H](Cc2ccncc2)NC(=O)[C@H](CC(N)=O)NC(=O)[C@H]2C[C@H](O)CN2C(=O)[C@H](Cc2c[nH]c3ccccc23)NC(=O)[C@@H]2CNCCN2C(=O)[C@H](Cc2ccncc2)NC1=O [SEQ ID NO. 83] (cyclo([4Pal][Trp(7-Cl)][αMeS][Phe(4-CONH2)][Phe(4-COOH)][Sar][Trp(βS-Me,7-OMe)][X1][Nle][4Pal][Pip(4-aza)]W[dHyp]N)) | 0.16 | > 1000 | – | –
CCCC[C@@H]1NC(=O)CSC[C@@H](C(N)=O)NC(=O)[C@H]([C@@H](C)c2c[nH]c3c(OC)cccc23)NC(=O)CN(C)C(=O)[C@H](Cc2ccc(O)cc2)NC(=O)[C@H](Cc2ccc(C(=O)O)cc2)NC(=O)[C@](C)(CO)NC(=O)[C@H](Cc2c[nH]c3c(Cl)cccc23)NC(=O)[C@H](Cc2ccncc2)NC(=O)[C@H](CC(N)=O)NC(=O)[C@H](CCC(=O)O)N(C)C(=O)[C@H](Cc2c[nH]c3ncccc23)NC(=O)[C@H](C)N(CC)C(=O)[C@H](Cc2ccncc2)NC1=O [SEQ ID NO. 38] ({CH2CO}-[Nle][4Pal][NEtAla][Trp(7-aza)][NMeE]N[4Pal][Trp(7-Cl)][αMeS][Phe(4-COOH)]Y[Sar][Trp(βS-Me,7-OMe)]C-NH2; thioether N-14) | – | – | 0.7 | > 1000
CCCC[C@@H]1NC(=O)[C@@H]2CC[C@@H](C2)NC(=O)[C@H]([C@@H](C)c2c[nH]c3c(OC)cccc23)NC(=O)CN(C)C(=O)[C@H](Cc2ccc(C(=O)O)cc2)NC(=O)[C@H](Cc2ccc(C(N)=O)cc2)NC(=O)[C@](C)(CO)NC(=O)[C@H](Cc2c[nH]c3c(Cl)cccc23)NC(=O)[C@H](Cc2ccncc2)NC(=O)[C@H](CC(N)=O)NC(=O)[C@H]2C[C@H](O)CN2C(=O)[C@H](Cc2c[nH]c3ccccc23)NC(=O)[C@@H]2CC[C@@H](O)CN2C(=O)[C@H](Cc2ccncc2)NC1=O [SEQ ID NO. 53] (cyclo([4Pal][Trp(7-Cl)][αMeS][Phe(4-CONH2)][Phe(4-COOH)][Sar][Trp(βS-Me,7-OMe)][X1][Nle][4Pal][Pip(5R-OH)]W[dHyp]N)) | 0.09 | > 1000 | – | –

— patent US20240287138A1, “CYCLIC PEPTIDES FOR INHIBITING TNF RECEPTOR 1 ACTIVITY” (Merck Sharp & Dohme LLC, priority 2023, published 2024)
